{"source": "patent US20230107770A1", "about": "“METHOD OF ENHANCING IMMUNOTHERAPY USING ER STRESS PATHWAY INHIBITORS” (H. LEE MOFFITT CANCER CENTER AND RESEARCH INSTITUTE, INC., priority 2020, published 2023)", "key": {"B16 tumors": {"system": "B16 tumors", "assay": "s.c. B16 melanoma tumor model in mice", "assay_type": "in vivo"}, "tumor-MDSC": {"system": "tumor-MDSC", "assay": "Ex vivo suppression assay: tumor-MDSC co-cultured with primed CFSE-labeled T cells", "assay_type": "cell-based, mice", "settings": "tumor-MDSC (1:1/4) from B16-bearing mice; AMG-44 12 mg/kg", "method": "CD3^+ T cells were enriched using mouse or human T cell negative selection kits (MagniSort, Invitrogen) from the spleen and lymph nodes of C57BL/6 mice; or from purchased human buffy-coat units (One-Blood, Tampa, Fla.). Purity ranged between 95% and 99% as tested by flow cytometry. For antigen-specific priming studies, CD8^+ T cells were enriched using negative selection kits from the spleens of OT-I mice previously activated with OVA257-264 (SIINFEKL) for 48 hours. Tumor-MDSC were isolated from cellular suspensions of digested tumors followed by positive selection (MojoSort Streptavidin Nanobeads, Biolegend) using anti-Gr1 (Clone RB6-8C5, eBioscience) or anti-CD11b-biotinylated antibodies (Clone M1/70, StemCell Technologies, Vancouver). Also, M-MDSC (CD11b^+Gr1^+Ly6G^lowLy6C^high), PMN-MDSC (CD11b^+Gr1^+Ly6G^+Ly6C^low), macrophages (CD11b^+Gr1^negF4/80^+CD11c^neg), and myeloid DCs (CD11b^+Gr1^negF4/80^negCD11c^+) were sorted from tumors in a FACSAriaII (BD Biosciences).\nMurine BM-MDSC (ratio 1:1/8) or tumor-MDSC (ratio 1:1/4) were co-cultured with negatively selected CD3^+ T cells in a 96 well plate bound α-CD3 and α-CD28 (1 μg/ml each, eBioscience) for 3 days. T cell proliferation was assessed with Carboxyfluorescein succinimidyl ester (CFSE) or Cell-trace violet (Invitrogen) dye dilution detected by flow cytometry. For human studies, MDSC were co-cultured with enriched CD3^+ T cells activated with soluble α-CD3 (1 μg/ml, clone OKT3) and α-CD28 (0.5 μg/ml, clone L293) for 3 days in a 96 well plate bound with goat anti-mouse IgG (10 μg/ml). Results are expressed as percentage of proliferating T cells, determined by the dilution of fluorescence compared with non-stimulated T cells."}}}
{"smiles": "Cc1ccc2cc(-c3c(C)ccc(C(=O)c4c(-c5ccccc5)n(C)n(-c5ccccc5)c4=O)c3N)ccc2n1", "note": "[AMG-44]", "values": [{"measurement": "combination with anti-PD-L1 immunotherapy", "setting": "B16 tumors; B16-bearing mice, AMG-44 12 mg/kg plus 250 μg anti-PD-L1 every 3rd day", "value": "synergized with anti-PD-L1 immunotherapy"}, {"measurement": "therapeutic anti-tumor action in Eif2ak3^KO-Lyz2 mice", "setting": "B16 tumors; B16, AMG-44 12 mg/kg", "value": "not in Eif2ak3^KO-Lyz2 counterparts"}, {"measurement": "therapeutic anti-tumor action in PERK-competent mice", "setting": "B16 tumors; B16, AMG-44 12 mg/kg, Eif2ak3^Flox mice", "value": "detected in PERK-competent mice"}, {"measurement": "tumor growth", "setting": "B16 tumors; B16, daily i.p. GSK2606414 25 mg/kg or AMG-44 12 mg/kg from day 7", "value": "delayed tumor growth"}, {"measurement": "immunoinhibitory activity of tumor-MDSC", "setting": "tumor-MDSC", "value": "impaired the immunoinhibitory activity of tumor-MDSC"}]}
